Test [1] concerns the target T1, Bromodomain-containing protein 4 (Homo sapiens, UniProt O60885). The experiment in a line: (§1) Inhibitory Activity Assay: The assays of BRD4 (D1) and BRD4 (D2) were conducted in a 384-well polystyrene plate. The test compounds were first serially diluted in DMSO and the test compound/DMSO were transferred to 384-well plates. The final concentration of DMSO in the assay was 0.1%. 2 volumes of protein/peptide mixture were added into 384-well plates, then 2 volumes of assay mixture were added, and shake for 30 s. The plate was incubated at room temperature for 2 h. Then the HTRF signal on EnVision was readed.

Test [2] has as its target T1, Bromodomain-containing protein 4. The test is described as §1. The source holds these as a separate data set.

`CCS(=O)(=O)Nc1cc(-c2cn(C)c(=O)c3[nH]ccc23)cc2c1nc(C)n2Cc1ccc(Cl)cc1`: the results for the concentration for half-maximal inhibition (IC50) in test [1] and in test [2] were 1 nM and 0.4 nM, respectively.

For the compound `Cc1nc2ncc(-c3cn(C)c(=O)c4[nH]ccc34)nc2n1Cc1ccc(Cl)cc1`, the IC50 in test [1] worked out at 6.9 nM; in test [2] it was 1.7 nM.

As for `Cc1nc2ncc(-c3cn(C)c(=O)c4[nH]ccc34)cc2n1Cc1cccc(Cl)c1`, the IC50 in test [1] was found to be 4.2 nM; in test [2], 1.4 nM.

The record behind these values is ChEMBL document CHEMBL5729371, “Compound functioning as bromodomain protein inhibitor, and composition” (2022).
